For one series, the system named is primary rat neurons. Kind of series: Modified MTT assay of Aβ toxicity in primary neurons. It is filed as cell-based. The conditions noted are these: Table 3; Aβ toxicity in primary neurons. An excerpt: Primary neuron cultures: All animal procedures were approved by the Institutional Animal Care and Use Committee at the University of Alabama at Birmingham (UAB). As before (Rush, et al. (2020) Neurobiol Dis 134, 104668; Voskobiynyk, et al. (2020) eLife 9, e57354), primary rat neurons were isolated from timed-pregnant Sprague-Dawley rats. Briefly, dams were euthanized with isoflurane anesthesia asphyxiation, and hippocampal tissue was isolated from E19 embryos in Hibernate E, then digested in papain for 10 minutes at 37° C. Neurons were triturated into a single cell suspension in Neurobasal supplemented with B-27, L-Glutamine, and 10% FBS, then plated in 96-well plates coated with PDL and laminin at 30,000 neurons per well in 200 uL medium or in 24-well coated plates with or without coverslips at 50,000 per well. Cultures were maintained at 37° C. with 5% CO2. Twenty-four hours after plating (DIV1), two 50% media changes with Neurobasal plus B-27 and L-Glutamine without FBS, and 5 μM cytosine β-D-arabinofuranoside was added to prevent glial proliferation. 50% media changes were performed at DIV7 and DIV14 with serum-free supplemented Neurobasal and experiments were started at DIV19.
Aβ oligomer preparation: As before (Rush, et al. (2020) Neurobiol Dis 134, 104668), lyophilized recombinant Aβ42 was dissolved in HFIP, dried overnight, then stored at −20° C. until oligomerization. To oligomerize, Aβ was dissolved in DMSO to 1 mM, then diluted to 100 µM in PBS, then sonicated and left on ice for 24 hours. Immediately prior to use, Aβ was centrifuged at 4° C. for 10 minutes at 14,000×g. Vehicle was prepared as well in identical fashion except lacking the Aβ peptide.
Aβ toxicity assays: The modified MTT and MAP2 assays were adapted from a recent study (Rush, et al. (2020) Neurobiol Dis 134, 104668). Briefly, at DIV19, media on the neurons was reduced to […], then compound was added to final concentration of 0 μM, 0.3 μM, 3 μM, or 15 μM with even amounts of DMSO. After 90-minute pretreatment with compound, 2.5 μM Aβ was added.
The modified MTT assay was performed 24 hours after Aβ application. 100 μM MTT was applied to neurons and incubated at 37° C. for one hour. Media was removed, then replaced with 15 μL 1.6% Tween20 in PBS and incubated on a shaker at 100 rpm for 5 minutes. The Tween was then removed and transferred to a 384-well clear-bottom plate and replaced with 15 μL isopropanol. Plates were again agitated for 5 minutes at RT, then isopropanol was transferred to the 384-well plate. Absorbance was then read at 590 nm on a plate reader, with 660 nm used as a reference. The ratio of Tween soluble MTT to isopropanol soluble (Tween-insoluble) MTT was calculated for each sample, then normalized to the vehicle group average.
In general terms: Tetrazolium assays rely on reduction of a dye to a coloured formazan, in cell work by metabolically active cells.

A short description of another series: Solubility. In kind it is physicochemical. The following applies: Table 3.
Series [1] can be described thus: Metabolic stability in human liver microsomes. In kind it is in vitro ADME. The following applies: Table 3, read-out: ADME t1/2 (min): HLMt1/2. An excerpt:
(§1) A computational analysis of the top five hits was then completed to assess the physical attributes of the compounds emerging from the HTS. The target profile for drug-like properties included evaluation of molecular weight (MW), total polar surface area (PSA, the surface sum of all polar atoms on the molecule), solubility, metabolic stability, and partition coefficient (LogD). In general, MW<[…] and PSA <70 Å^2 were targeted, which generally allows for blood-brain barrier (BBB) permeability. Compounds with PSA >100 A^2 are generally poor at permeating cell membranes. Solubility was targeted at >10 μM at pH 7.4 and 40-60% of compound remaining after 60 minutes of incubation in mouse or human liver microsomes (an indicator of compound stability after first-pass metabolism). LogD is the log of the ratio of concentrations of a compound in two immiscible solvents at equilibrium. Values ranging from 2-4 were targeted, typical for CNS drugs. Based on these criteria, compound no. 55 was selected as the top hit for optimization. Compound no.
(Liver microsomes are a subcellular fraction often used to study metabolism.)

Series [2] in a line: Partition coefficient (LogD). In kind it is physicochemical. The following applies: Table 3; read-out: ADME LogD.
Description: as §1

The target in the next series is Tau-Fyn interaction (Homo sapiens (Human), UniProt P10636). Kind of series: Tau-Fyn PLA screening in HEK-293 cells. It is filed as cell-based. The conditions noted are these: Table 3; Tau-Fyn PLA. As to the method: Tau-Fyn PLA screening in HEK-293 cells: For Tau-Fyn PLA in HEK-293 cells, we used the same plasmids as before (Rush, et al. (2020) Neurobiol Dis 134, 104668): human 4R2N Tau with an N-terminal mKate2 tag in a pcDNA3.1 vector and human Fyn with an N-terminal Myc tag in a pCMV-Sport6 vector grown in Stellar E. coli. HEK-293 cells were plated on coverslips coated with PDL and laminin in a 24-well plate in DMEM supplemented with 10% FBS and 1% PenStrep. Cells were transfected with 125 ng of Tau-mKate2 and Fyn plasmids with 1.5 μL Fugene in plain DMEM. After 24 hours, compound was applied at 15 μM. Twenty-four hours after application, cells were fixed. PLA protocol was the same as above except for different primary antibodies (Tau5 1:500, Fyn3 1:250). After image acquisition, PLA density was calculated as PLA puncta (as above) divided by cell area to account for differences in confluency. Cell area was defined with ImageJ as % Area after theresholding Tau-mKate2 fluorescence because it filled the cells evenly. Puncta/cell area was then normalized to vehicle-treated slides from that experiment.

Series [3] is described as follows: Metabolic stability in mouse liver microsomes. In kind it is in vitro ADME. The following applies: mouse, liver microsomes, Table 3, read-out: ADME t1/2 (min): MLMt1/2.
The target in another series is Tau-FynSH3 interaction (Homo sapiens (Human), UniProt P10636). The experiment in a line: Tau-FynSH3 AlphaScreen. In kind it is binding. The following applies: Table 3; read-out: Alpha screen IC50. An excerpt: Human Fyn-SH3 domain with GST-tag at the N-terminus and a Strep-tag II ([…]) at the C-terminus (GST-Fyn-SH3-Strep) was cloned into pPR-IBA1 vector (IBA Lifesciences) (Cochran, et al. (2014) J. Biomol. Screen. 19, 1338-1349). Codon-optimized human 4R2N Tau for E. coli expression with a Strep-tag II at the C-terminus (His-Tau-Strep) was cloned into pET-28a(+) vector (Novagen). The constructs were transformed into E. coli BL-21(DE3) competent cells (Novagen). For GST-Fyn-SH3-Strep purification, a single colony was inoculated in Luria-Bertani (LB) broth at 37° C. overnight. 10 mL cell culture was added into 500 mL LB medium and cultured at 37° C. 0.5 mM Isopropyl β-D-1-thiogalactopyranoside (IPTG) was added into the culture when OD600 reached 0.7. Cells were further cultured at 25° C. for 4 hours and harvested. Cell pellet was resuspended in lysis buffer (20 mM Tris pH 7.9, 300 mM NaCl, 1 mM TCEP) with 1 tablet of EDTA-free protease inhibitors (ThermoFisher) and 1 mg/ml lysozyme. Cells were disrupted by sonication and debris was removed by centrifugation at 9500 rpm for 1 hour. Supernatant was loaded onto a glutathione-sepharose column (Cytiva). The column was washed in lysis buffer and protein eluted in lysis buffer containing 25 mM reduced glutathione. For His-Tau-Strep protein purification, cells were inoculated in LB broth medium and cultured at 37° C. overnight. A 10 mL overnight culture was added to 500 mL of auto-induction medium (Studier, F. W. (2005) Protein Expr Purif 41, 207-34) and cells were cultured at 37° C. for about 5 hours. The temperature was lowered to 18° C., and cells were cultured overnight. Cells were harvested and resuspended in lysis buffer with 20 mM imidazole, protease inhibitors, and lysozyme. Cells were disrupted by sonication and cell pellets were spun down at 9500 rpm for 1 hour. Supernatant was loaded onto Ni-NTA column (Cytiva) and the column was washed in lysis buffer with 20 mM imidazole. His-Tau-Strep protein was eluted in lysis buffer containing 400 mM imidazole. Both eluted GST-Fyn-SH3-Strep and His-Tau-Strep protein solutions were passed through G-25 desalting column (Cytiva) with lysis buffer and loaded onto high capacity Strep-Tactin column (IBA Lifesciences). The columns were washed in Buffer W (IBA Life sciences) and proteins were eluted in Buffer E (IBA life sciences). The eluted proteins were passed through G-25 desalting column again. Both GST-Fyn-Strep and His-Tau-Strep proteins were concentrated and diluted 1:1 in ethylene glycol as a cryoprotectant for storage at −80° C.
AlphaScreen was conducted with 10 µg/mL of glutathione donor beads (PerkinElmer, Waltham, MA) and nickel chelate acceptor beads (PerkinElmer) in 10 mM Bis-Tris (pH 7.0), 1 mM TCEP, 0.02% casein, and 0.1% Tween-20. Compounds were plated first followed by addition of one the proteins at 600 nM and incubation for 30 min. The second protein was added and incubated for 30 mn, then the beads were added simultaneously and the final mixture was incubated for 2 hours. Experiments were conducted in 384-well plates (6007290; PerkinElmer) and results were read on a PHERAstar plate reader (BMG Labtech, Cary, NC).
˜50,000 compounds from the Enamine and Southern Research libraries were screened to identify Tau-FynSH3 interaction inhibitors using an AlphaScreen assay (Cochran, et al. (2014) J. Biomol. Screen. 19, 1338-1349). Compounds that were >3 standard deviations above mean inhibition were selected, yielding 1,852 hits (FIG. 1A). […]. These 39 compounds were tested in a live-cell BRET assay to measure Tau-Fyn interaction in cells. […]. Screen. 19, 1338-1349).
For orientation: Bead proximity is the source of the signal in Alpha formats.

Series [4] has as its system Sam68(PxxP)-FynSH3 interaction. The following applies: Oneyama et al. 2002; cited from earlier work.

Tau-FynSH3 interaction, sequence (P10636 other isoform, or with tags, fused parts or gaps): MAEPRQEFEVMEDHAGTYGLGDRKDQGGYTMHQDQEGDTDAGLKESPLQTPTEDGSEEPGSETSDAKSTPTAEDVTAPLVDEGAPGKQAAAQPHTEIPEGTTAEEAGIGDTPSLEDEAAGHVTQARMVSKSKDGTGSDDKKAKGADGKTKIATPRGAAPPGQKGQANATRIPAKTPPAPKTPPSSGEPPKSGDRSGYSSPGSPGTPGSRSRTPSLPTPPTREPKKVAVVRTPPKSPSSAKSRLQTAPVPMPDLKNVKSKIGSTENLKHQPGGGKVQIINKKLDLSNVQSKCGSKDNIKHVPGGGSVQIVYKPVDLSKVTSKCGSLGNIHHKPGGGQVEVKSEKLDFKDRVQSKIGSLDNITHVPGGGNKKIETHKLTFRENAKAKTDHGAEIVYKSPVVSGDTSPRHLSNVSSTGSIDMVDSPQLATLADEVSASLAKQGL
Tau-Fyn interaction, sequence (P10636 other isoform, or with tags, fused parts or gaps): as above

Broadly, the logD is lipophilicity at a set pH, counting ionised and neutral species. Take `COc1ccc2c(c1)N(CC(=O)Nc1nnc(-c3ccccn3)[nH]1)C(=O)CS2` [compound 22, 2-(6-METHOXY-3-OXO-2H-BENZO[B][1,4]THIAZIN-4(3H)-YL)-N-(5-(PYRIDIN-2-YL)-4H-1,2,4-TRIAZOL-3-YL)ACETAMIDE]: the MTT result with primary rat neurons is given as “Active”. Moreover, the “ADME Sol (μM)” value in “Solubility” is given as “Sol = 80 μM”. Moreover, the half-life is 150 min in series [1] and 56 min in series [3]. Besides, the logD in series [2] amounted to 1.8. In addition, the PLA result at Tau-Fyn interaction is “Active”.
By IC50 is commonly meant the point on the concentration scale where inhibition reaches its midpoint. Regarding `O=C(CN1C(=O)CSc2ccc(F)cc21)Nc1nnc(-c2ccccn2)[nH]1` [compound 15, 2-(6-FLUORO-3-OXO-2H-BENZO[B][1,4]THIAZIN-4(3H)-YL)-N-(5-(PYRIDIN-2-YL)-4H-1,2,4-TRIAZOL-3-YL)ACETAMIDE], on Tau-FynSH3 interaction, the IC50 was 1080 nM. Moreover, in “Solubility”, the “ADME Sol (μM)” value is listed as “Sol = 65 μM”. For the same compound, the results for the half-life in series [1] and in series [3] were 238 min and 53 min, respectively. Further, the logD in series [2] amounted to 1.8.
For `CC1(C)Sc2ccccc2N(CC(=O)Nc2nnc(-c3ccccn3)[nH]2)C1=O` [compound 19], in that order: 1500 nM, “Sol = 20 μM”, 28 min, 8 min and 1.3.
UCS15A: in series [4], the “Sam68(PxxP)-FynSH3 interaction” value is on record as “inhibits Sam68(PxxP)-FynSH3 interaction”.
Turning to `O=C(CCN1C(=O)CSc2cc(F)ccc21)Nc1nnc(-c2ccccn2)[nH]1` [compound 7, 3-(7-FLUORO-3-Oxo-2H-BENZO[B][1,4]THIAZIN-4(3H)-YL)-N-(5-(PYRIDIN-2-YL)-4H-1,2,4-TRIAZOL-3-YL)PROPANAMIDE], the IC50 at Tau-FynSH3 interaction was 1920 nM. Further, in the series “Solubility”, the “ADME Sol (μM)” value is listed as “Sol = 69 μM”. Further, the half-life amounted to 78 min in series [1] and 22 min in series [3]. Besides, the pH-dependent lipophilicity (logD) in series [2] is 2.
Take `O=C(CCN1C(=O)CSc2cc(F)c(F)cc21)Nc1nnc(-c2ccccn2)[nH]1` [compound 9, 3-(6,7-DIFLUORO-3-OXO-2H-BENZO[B][1,4]THIAZIN-4(3H)-YL)-N-(5-(PYRIDIN-2-YL)-4H-1,2,4-TRIAZOL-3-YL)PROPANAMIDE]: the IC50 at Tau-FynSH3 interaction is 2970 nM. Also, in the series “Solubility”, the “ADME Sol (μM)” value is listed as “Sol = 81 μM”. Also, the half-life in series [1] was 53 min; in series [3] it was 20 min. The logD in series [2] came to 1.8.
`O=C(CN1C(=O)CCSc2ccccc21)Nc1nnc(-c2ccccn2)[nH]1` [compound 18, 2-(4-OXO-3,4-DIHYDROBENZO[B][1,4]THIAZEPIN-5(21)-YL)-N-(5-(PYRIDIN-2-YL)-4H-1,2,4-TRIAZOL-3-YL)ACETAMIDE]: the IC50 on Tau-FynSH3 interaction worked out at 3530 nM. In addition, the “ADME Sol (μM)” value in “Solubility” was “Sol = 59 μM”. Moreover, the half-life came to 152 min in series [1] and 40 min in series [3]. The logD in series [2] was determined as 1.3.
In the case of `O=C(CCN1C(=O)CSc2cc(Cl)ccc21)Nc1nnc(-c2ccccn2)[nH]1` [compound 8, 3-(7-CHLORO-3-OXO-2H-BENZO[B][1,4]THIAZIN-4(3H)-YL)-N-(5-(PYRIDIN-2-YL)-4H-1,2,4-TRIAZOL-3-YL)PROPANAMIDE], in the series on primary rat neurons, the MTT result is reported as “Active”. Moreover, the IC50 on Tau-FynSH3 interaction is 2720 nM. The “ADME Sol (μM)” value in “Solubility” is “Sol = 24 μM”. Also, the half-life in series [1] worked out at 62 min; in series [3], 18 min. The logD in series [2] worked out at 2.3.

Values taken from patent US20250367209A1 (SOUTHERN RESEARCH INSTITUTE, priority 2022, published 2025).
